In ChEMBL document CHEMBL4476863, “Heterocyclic compounds for the inhibition of pask” (2012):

Biological target: PAS domain-containing serine/threonine-protein kinase (Homo sapiens, UniProt Q96RG2)
Test: Inhibition of purified human PASK kinase domain expressed in insect cells incubated for 10 mins using MBP protein by kinase-Glo luminescent kinase assay

Sequence of PAS domain-containing serine/threonine-protein kinase (Q96RG2 whole entry, the tested form may be a part): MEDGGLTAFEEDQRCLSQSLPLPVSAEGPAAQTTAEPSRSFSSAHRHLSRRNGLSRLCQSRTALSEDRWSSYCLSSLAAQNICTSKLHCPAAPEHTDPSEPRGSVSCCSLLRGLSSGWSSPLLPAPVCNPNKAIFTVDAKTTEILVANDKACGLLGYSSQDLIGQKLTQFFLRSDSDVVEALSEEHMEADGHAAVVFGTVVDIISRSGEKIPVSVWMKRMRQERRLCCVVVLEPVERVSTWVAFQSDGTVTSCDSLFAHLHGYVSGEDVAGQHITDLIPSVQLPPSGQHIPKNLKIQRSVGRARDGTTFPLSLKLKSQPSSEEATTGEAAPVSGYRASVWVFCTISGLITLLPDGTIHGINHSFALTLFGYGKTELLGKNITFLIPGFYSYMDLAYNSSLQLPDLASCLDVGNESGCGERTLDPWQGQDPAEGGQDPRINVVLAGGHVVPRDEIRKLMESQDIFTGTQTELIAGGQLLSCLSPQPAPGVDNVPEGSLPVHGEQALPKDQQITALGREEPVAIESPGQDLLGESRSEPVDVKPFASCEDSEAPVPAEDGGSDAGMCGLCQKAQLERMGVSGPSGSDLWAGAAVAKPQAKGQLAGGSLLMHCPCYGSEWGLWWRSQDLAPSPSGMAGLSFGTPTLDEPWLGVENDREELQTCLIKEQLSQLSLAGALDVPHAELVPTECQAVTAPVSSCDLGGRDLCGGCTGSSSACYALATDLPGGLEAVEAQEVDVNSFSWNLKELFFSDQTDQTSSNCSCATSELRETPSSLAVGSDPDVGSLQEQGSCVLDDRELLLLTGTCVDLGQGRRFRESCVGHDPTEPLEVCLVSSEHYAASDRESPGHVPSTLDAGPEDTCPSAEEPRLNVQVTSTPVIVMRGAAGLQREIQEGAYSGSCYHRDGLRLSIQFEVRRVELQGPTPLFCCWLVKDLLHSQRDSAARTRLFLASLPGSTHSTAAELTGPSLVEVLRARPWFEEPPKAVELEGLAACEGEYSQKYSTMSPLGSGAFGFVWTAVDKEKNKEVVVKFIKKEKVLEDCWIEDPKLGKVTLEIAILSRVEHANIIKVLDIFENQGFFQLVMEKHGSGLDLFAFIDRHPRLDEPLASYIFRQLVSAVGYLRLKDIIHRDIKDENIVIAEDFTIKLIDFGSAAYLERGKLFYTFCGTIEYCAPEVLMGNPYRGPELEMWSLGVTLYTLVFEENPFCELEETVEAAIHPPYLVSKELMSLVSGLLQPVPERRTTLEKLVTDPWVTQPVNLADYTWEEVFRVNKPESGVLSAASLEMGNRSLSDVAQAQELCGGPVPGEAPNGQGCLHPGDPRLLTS

For O=c1cc(-c2ccc3c(c2)OCO3)[nH]c2c(-c3ccccn3)cnn12, the IC50 was ≤ 10 µM.
